Reference: patent US12281081B2, “Herbicidal compounds” (SYNGENTA CROP PROTECTION AG, priority 2019, dated 2025)

How the values were obtained:
barley crop plants = assay: Crop phytotoxicity comparison, post-emergence; conditions: for damage to the barley crop compared to prior art compound C1: summary of Table B3
Lolium perenne (LOLPE) [1] = assay: Post-emergence herbicidal glasshouse test; assay type: in vivo; conditions: 250 g/Ha, evaluated after 13 days
Source text: (§1) Compounds are applied at 250 g/h. […] NT=not tested.

[2] = tested on: Echinochloa crus-galli (ECHCG); assay: Post-emergence herbicidal glasshouse test; assay type: in vivo; conditions: 250 g/Ha, evaluated after 13 days
Source text: as §1

Avena fatua (AVEFA) [3] = assay: Post-emergence herbicidal glasshouse test; assay type: in vivo; conditions: 250 g/Ha, evaluated after 13 days
Source text: as §1

Setaria faberi (SETFA) [4] = assay: Post-emergence herbicidal glasshouse test; assay type: in vivo; conditions: 250 g/Ha, evaluated after 13 days
Source text: as §1

[5] = tested on: Alopecurus myosuroides (ALOMY); assay: Post-emergence herbicidal glasshouse test; assay type: in vivo; conditions: 250 g/Ha, evaluated after 13 days
Source text: as §1

Lolium perenne (LOLPE) [6] = assay: Pre-emergence herbicidal glasshouse test; assay type: in vivo; conditions: 250 g/Ha, evaluated after 13 days
Source text: as §1

[7] = tested on: Echinochloa crus-galli (ECHCG); assay: Pre-emergence herbicidal glasshouse test; assay type: in vivo; conditions: 250 g/Ha, evaluated after 13 days
Source text: as §1

Avena fatua (AVEFA) [8] = assay: Pre-emergence herbicidal glasshouse test; assay type: in vivo; conditions: 250 g/Ha, evaluated after 13 days
Source text: as §1

Setaria faberi (SETFA) [9] = assay: Pre-emergence herbicidal glasshouse test; assay type: in vivo; conditions: 250 g/Ha, evaluated after 13 days
Source text: as §1

[10] = tested on: Alopecurus myosuroides (ALOMY); assay: Pre-emergence herbicidal glasshouse test; assay type: in vivo; conditions: 250 g/Ha, evaluated after 13 days
Source text: as §1

wheat crop plants = assay: Crop phytotoxicity comparison, post-emergence; conditions: for damage to the wheat crop compared to prior art compound C1: summary of Table B3
[11] = rate 60 g/ha + safener cloquintocet-mexyl (CQC) at 50 g/ha

Row | Structure (SMILES) | % phytotoxicity observed, Barley (barley crop plants; rate 30 g/ha) | % phytotoxicity observed, Barley (barley crop plants; rate 60 g/ha) | damage to the barley crop compared to prior art compound C1 (barley crop plants) | percentage damage caused to the plant, LOLPE (Lolium perenne (LOLPE) [1]) | percentage damage caused to the plant, ECHCG [2] | percentage damage caused to the plant, AVEFA (Avena fatua (AVEFA) [3]) | percentage damage caused to the plant, SETFA (Setaria faberi (SETFA) [4]) | percentage damage caused to the plant, ALOMY [5] | percentage damage caused to the plant, LOLPE (Lolium perenne (LOLPE) [6]) | percentage damage caused to the plant, ECHCG [7] | percentage damage caused to the plant, AVEFA (Avena fatua (AVEFA) [8]) | percentage damage caused to the plant, SETFA (Setaria faberi (SETFA) [9]) | percentage damage caused to the plant, ALOMY [10] | % phytotoxicity observed, Wheat (wheat crop plants; rate 30 g/ha) | % phytotoxicity observed, Wheat (wheat crop plants; rate 60 g/ha) | % phytotoxicity observed, Wheat (wheat crop plants; [11]) | damage to the wheat crop compared to prior art compound C1 (wheat crop plants)
1 | CC#Cc1cc(C)c(C2C(=O)CC3(CCN(S(C)(=N)=O)CC3)CC2=O)c(C)c1 (stereo not drawn) [Compound A1, 9-(2,6-dimethyl-4-prop-1-ynyl-phenyl)-3-(methylsulfonimidoyl)-3-azaspiro[5.5]undecane-8,10-dione] | 0% | 0% | significantly less damaging | 5 (5=80-100%) | 5 (5=80-100%) | 5 (5=80-100%) | 5 (5=80-100%) | 5 (5=80-100%) | 5 (5=80-100%) | 5 (5=80-100%) | 5 (5=80-100%) | 5 (5=80-100%) | 5 (5=80-100%) | 0% | 0% | 0% | significantly less damaging
2 | CC#Cc1cc(C)c(C2C(=O)CC3(CCN(S(=O)(=O)NC)CC3)CC2=O)c(C)c1 [Compound A3, 9-(2,6-dimethyl-4-prop-1-ynyl-phenyl)-N-methyl-8,10-dioxo-3-azaspiro[5.5]undecane-3-sulfonamide] | 0% | 0% | significantly less damaging | 5 (5=80-100%) | 5 (5=80-100%) | 5 (5=80-100%) | 5 (5=80-100%) | 5 (5=80-100%) | 5 (5=80-100%) | 5 (5=80-100%) | 5 (5=80-100%) | 5 (5=80-100%) | 5 (5=80-100%) | 0% | 0% | 0% | significantly less damaging
3 | CC#Cc1cc(C)c(C2C(=O)CC3(CCOCC3)CC2=O)c(C)c1 [Compound C1, reference compound] | 80% | 90% |  |  |  |  |  |  |  |  |  |  |  | 40% | 70% | 60% | 
